The results in this text go back to paper PMC10299916, “A multi-enzyme machine polymerizes the Haemophilus influenzae type b capsule” (Nature Chemical Biology, 2023).

The target in experiment [1] is T1, Bcs3 (Haemophilus influenzae, UniProt Q2ERG0).
T1 construct: full length, 1,215 residues; N-terminal MBP-S3N10 and C-terminal His6 fusion; E. coli M15
The experiment can be described thus: HPLC-AEC and Alcian blue PAGE of polymer formation. It is filed as biochemical. As to conditions: Mg2+, pH 8.0, 37 °C.

For experiment [2], the target named is T2, Bcs1 (Haemophilus influenzae, UniProt Q48230).
T2 construct: recombinant, E. coli M15; cloned in MBP-S3N10-...-His6 vector
In words: HPLC-AEC. It is filed as biochemical. To be noted: 5 mM, CTP, Mg2+, pH 8.0, 37 °C.

Experiment [3] has as its target T3, PrsA (Haemophilus influenzae, UniProt P44328).
T3 construct: gene prs; recombinant, E. coli M15; cloned in MBP-S3N10-...-His6 vector
In words: HPLC-AEC. The format is biochemical. As to conditions: Mg2+, pH 8.0, 37 °C.

Experiment [4] deals with Bcs3 crystallization construct MBP-Bcs3_(2–1162)-His6 after PreScission digest (Bcs3-His6) (Haemophilus influenzae serotype b (strain ATCC 10211)) (UniProt Q2ERG0). In words: crystal structure.

In the case of `Nc1ccn([C@@H]2O[C@H](COP(=O)(O)OP(=O)(O)OC[C@@H](O)[C@@H](O)[C@@H](O)CO)[C@@H](O)[C@H]2O)c(=O)n1` [CDP-ribitol], the “HPLC-AEC and Alcian blue PAGE of polymer formation” value in experiment [1] (generated in situ by RpiA and Bcs1, with PRPP, CroT donor) was “CDP-ribitol was only used up in the presence of PRPP, with concomitant production of CMP”. In the case of `O=C(CO)[C@H](O)[C@H](O)COP(=O)(O)O` [ribulose-5-phosphate], the HPLC-AEC entry in experiment [2] (NADPH) is on record as “presence of Bcs1 in a reaction containing ribulose-5-phosphate led to the consumption of NADPH”. As to `Nc1ncnc2c1ncn2[C@@H]1O[C@H](COP(=O)(O)OP(=O)(O)OP(=O)(O)O)[C@@H](O)[C@H]1O` [ATP], in experiment [3] (ribose-5-phosphate), the HPLC-AEC result is listed as “(c) PrsA using ATP, CTP or UTP as donor substrate”. Regarding `O=P(O)(O)OC[C@H]1OC(O)[C@H](O)[C@@H]1O` (stereo partly drawn) [D-ribose-5-phosphate], in experiment [3] (ATP), the HPLC-AEC entry is recorded as “The reaction cascade (e, f) was started with (e) Rib or (f) Rib-5P”. For the compound `NC(=O)C1=CN([C@@H]2O[C@H](COP(=O)(O)OP(=O)(O)OC[C@H]3O[C@@H](n4cnc5c(N)ncnc54)[C@H](OP(=O)(O)O)[C@@H]3O)[C@@H](O)[C@H]2O)C=CC1` [NADPH], the HPLC-AEC result in experiment [2] (ribulose-5-phosphate) is given as “presence of Bcs1 in a reaction containing ribulose-5-phosphate led to the consumption of NADPH”. Regarding `O=P(O)(O)OC[C@H]1O[C@H](OP(=O)(O)OP(=O)(O)O)[C@H](O)[C@@H]1O` [PRPP, 5-phospho-α-D-ribose-1-diphosphate], in experiment [1] (5 mM, CDP-ribitol generated in situ by RpiA and Bcs1, CriT donor), the “HPLC-AEC and Alcian blue PAGE of polymer formation” value is listed as “Thus, we concluded that PRPP is the donor substrate for Bcs3”. The compound “Bcs3 crystallization construct MBP-Bcs3_(2–1162)-His6 after PreScission digest (Bcs3-His6) (from UniProt Q2ERG0 2-1162) (enzyme)” had a stoichiometry N in experiment [4] of 2.

For orientation: stoichiometry N means the number of molecules, sites or subunits per partner or assembly.
